This series in a line: gradient 5% acetonitrile 3 min, to 50% in 2 min, to 85% in 15 min, held 3 min, 100 µL/min. Particulars: column: Zorbax Extend-C18 2.1 x 50 mm; eluents: water / acetonitrile, 0.1% formic acid. The method in brief:
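Data were gathered over 3 months by HPLC coupled to a quadrupole time-of-flight mass spectrometer, operated in positive and negative ionization mode. Mixtures of ~100 pure standards ran on a Zorbax Extend-C18 column (2.1 × 50 mm, 1.8 μm) at 100 μL/min, with water and acetonitrile each containing 0.1% formic acid and dead and dwell volumes of 40 μL and 900 μL. Retention time was read from adduct peaks picked by computer and checked manually.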
Regarding `O=S1(=O)C[C@H](N2CCN(c3ncccn3)CC2)[C@@H](S(=O)(=O)c2ccc(F)cc2)C1`, the RP-LC retention time stood at 772 s.
Then `CC(=O)Nc1ccc(OCc2cc(C(=O)NC3CCCCC3)no2)cc1`, with 781 s.
Regarding `CCN1C(=O)COc2ccc(-c3csc(NC(=O)C(C)C)n3)cc21`, the RP-LC retention time is 830 s.
Consider `COc1ccccc1N1C(=O)CC(N2CCC(C(N)=O)CC2)C1=O` (stereo not given), for which the RP-LC retention time was found to be 547 s.
`CC(C)S(=O)(=O)c1ccc(C(=O)Nc2onc3c2CCCC3)cc1` returned an RP-LC retention time of 732 s.
Next, `COc1ccccc1C(=O)N1CCC2(CC1)NC(=O)c1cc(C)ccc1N2C`: 732 s; `CCC(C(=O)NCCc1ccccc1)n1cnc2nc3c(cc2c1=O)CCCC3` (stereo not given): 785 s.
In turn, `O=S(=O)(c1cccc(Cl)c1)N1CCC2(CCN(c3cccnc3)C2)C1` (stereo not given) yielded an RP-LC retention time of 680 s.
Next, `Cc1ccc(Cl)cc1NC(=O)C(C)n1cnc2nc3c(cc2c1=O)CCCC3` (stereo not given): 809 s; `CCC(C)NC(=O)c1nc(Nc2cccc(C)c2)c2ccccc2n1` (stereo not given): 819 s.
Molecule `Brc1ccccc1-c1nn2c(-c3ccccn3)nnc2s1` gave an RP-LC retention time of 836 s.
In turn, `CCc1ccc(S(=O)(=O)N2C[C@@H](F)C[C@H]2C(=O)N2CCCCC2)cc1` returned an RP-LC retention time of 866 s.
On to `CCC1Oc2ccc(S(=O)(=O)N3CCC(C(=O)NCc4ccco4)CC3)cc2NC1=O` (stereo not given), for which the RP-LC retention time is 795 s.
Then `COC(=O)N1CCN(c2ccc(-c3noc(C(F)(F)F)n3)cn2)CC1`, with 904 s.
For `CCOc1ccc(S(=O)(=O)N2CCC(C(=O)NCCc3ccc(OC)c(OC)c3)CC2)cc1C`, the RP-LC retention time amounted to 901 s.
Then `CCOC(=O)c1ccc(NC(=O)C2CCCN(S(=O)(=O)c3ccc(OC)c(Cl)c3)C2)cc1` (stereo not given), with 1060 s; and `O=C(CN1CCC(COCc2ccccc2)CC1)NCc1ccco1`, with 571 s; and `Cc1noc(C)c1CCNC(=O)c1cc(-c2cccnc2)nc2ccccc12`, with 652 s.
Turning to `CCCC(=O)Nc1ccc2nc(N3CCN(c4cc(Cl)ccc4C)CC3)cc(C(=O)O)c2c1`, the RP-LC retention time worked out at 746 s.
On to `Cc1ccc(-c2ccc(=O)n(CCc3nc(-c4ccc5c(c4)OCO5)no3)n2)cc1C`, for which the RP-LC retention time turned out to be 1020 s.
On to `Cc1[nH]c(C(=O)N2CCCC(C(=O)NCc3ccccc3)C2)c(C)c1C(=O)OC(C)C` (stereo not given), for which the RP-LC retention time was found to be 860 s.
As for `CC1Oc2ccc(-c3csc(NC(=O)c4cccnc4)n3)cc2N(C)C1=O` (stereo not given), the RP-LC retention time came out at 773 s.
Take `O=C(CN1C(=O)CCc2cc(Br)ccc21)Nc1ccc(F)cc1`: the RP-LC retention time was 903 s.
`Cc1oc(-c2ccc(NC(=O)c3ccc(N(C)C)cc3)cc2)nc1Cn1cccn1`: the RP-LC retention time is 875 s.
`O=C(CCc1csc(NC(=O)Nc2ccccc2)n1)Nc1nc2ccccc2s1` registered an RP-LC retention time of 864 s.
`Fc1cccc(-c2nnc(Cc3nc(-c4ccc(Cl)cc4)no3)o2)c1`: the RP-LC retention time is 1110 s.
Next, `Cc1ccc2[nH]cc(CCNC(=O)CCn3c(=O)c(C)nc4ccccc43)c2c1`: 781 s; `COc1ccc(-n2ccn3cc(-c4ccc5c(c4)OCO5)nc3c2=O)cc1Cl`: 833 s.
`CC1(C(=O)N2CC(F)(F)C[C@H]2c2nnc(-c3ccccc3)o2)CC1` came in with an RP-LC retention time of 834 s.
Regarding `CCC(C)NC(=O)N1CC(Oc2ccc(-c3noc(COC)n3)cc2)C1` (stereo not given), the RP-LC retention time amounted to 794 s.
In the case of `Cc1c(Cl)cccc1NC(=O)NC1CCN(c2ccc(F)cc2)C1=O` (stereo not given), the RP-LC retention time worked out at 864 s.
`O=C(CCC(=O)N1CCCC1c1nc2ccccc2s1)N1CCc2ccccc21` (stereo not given) gave an RP-LC retention time of 876 s.
Turning to `Cn1ncc2c(N3CCSCC3)nc(C(=O)NCCc3ccncc3)nc21`, the RP-LC retention time came out at 559 s.
Then `CC1=C(c2ccc(Cl)cc2)S(=O)(=O)N=C1N1CCC(C(=O)NCCN2CCOCC2)CC1`, with 592 s; and `Cc1cc(C)c2c(n1)sc1c(=O)n(CC(=O)Nc3ccc(F)c(F)c3)c(C)nc12`, with 910 s; and `O=C1N(C2CCN(S(=O)(=O)c3cccnc3)CC2)C(c2ccccc2)C12CCCC2` (stereo not given), with 912 s.
Turning to `CCC(=O)N1CCCN(C2=NS(=O)(=O)C(c3ccc(C)cc3)=C2C)CC1`, the RP-LC retention time was 742 s.
Then `O=c1ccc(-c2ccc(Cl)cc2)nn1CCc1nc(-c2ccc3c(c2)OCO3)no1`, with 1040 s; and `Cc1nc(-c2cc(S(=O)(=O)NCc3cc(F)cc(F)c3)c(C)s2)cs1`, with 994 s; and `CCOC(=O)c1c(C)[nH]c(C(=O)N2CCC(CC(=O)NCCN(C)C)CC2)c1C`, with 569 s.
Turning to `COc1cccc(-n2ccc(=O)c(-c3nc(-c4ccccc4F)no3)n2)c1`, the RP-LC retention time turned out to be 869 s.
In the case of `CN(C)C(=O)c1ccc2c(c1)nnn2CCNC(=O)Nc1cc(Cl)ccc1Cl`, the RP-LC retention time came out at 719 s.
The molecule `Cc1ccc(Cn2cccc2C(=O)C(=O)NC2CCCC2)cc1` returned an RP-LC retention time of 1100 s.
Then `Cc1cccc(Oc2nccn3c(=O)n(CC(=O)NCCC4=CCCCC4)nc23)c1C`, with 1000 s; and `CCN(CCNC(=O)C1CCCN(c2ncnc3c2nc2n3CCCCC2)C1)Cc1ccccc1` (stereo not given), with 639 s.
Take `Cc1cccc(NC(=O)C2CCCN(S(=O)(=O)N3CCC(C)CC3)C2)c1C` (stereo not given): the RP-LC retention time was 1030 s.
In the case of `NC(=O)c1cccc2[nH]c(-c3ccc(C4CCCN4)cc3F)nc12` (stereo not given), the RP-LC retention time was determined as 621 s.
On to `CCCN(CC1CCOC1)C(=O)Nc1ccccc1OC` (stereo not given), for which the RP-LC retention time is 821 s.
For the molecule `COC(=O)C1=CN(c2cccc(C(F)(F)F)c2)c2ccccc2S1(=O)=O`, the RP-LC retention time turned out to be 900 s.
In turn, `COCc1nnc(C(=O)Nc2cccc(C(=O)NCCc3c[nH]c4ccc(OC)cc34)c2)s1` yielded an RP-LC retention time of 799 s.
`Cc1ccc(NC(=O)CSc2nc(N3CCCCC3)nc3ccccc23)cc1F` had an RP-LC retention time of 789 s.
`O=C(NCCC1CCN(C(=O)Nc2ccc(F)cc2)CC1)c1ccoc1` gave an RP-LC retention time of 716 s.
Molecule `COc1cccc(Cn2nc3ccc(S(=O)(=O)N4CCCC4)cn3c2=O)c1` registered an RP-LC retention time of 814 s.
Regarding `CS(=O)(=O)N1CCC(C(=O)Nc2nc3c(s2)COCC3)CC1`, the RP-LC retention time was 604 s.
In the case of `Cc1ccc(C)c(NC(=O)Cn2c(N3CCOCC3)nc(C)cc2=O)c1`, the RP-LC retention time amounted to 770 s.
In turn, `NS(=O)(=O)c1ccc(Nc2ccccc2)c([N+](=O)[O-])c1` registered an RP-LC retention time of 856 s.
Next, `CCc1nc2cc(-c3noc(-c4n[nH]c5ccccc45)n3)ccc2o1`: 645 s; `Cc1nnsc1C(=O)NCC1(O)CCCC1`: 602 s.
For the molecule `O=C(Cn1cccc1-c1nc(-c2ccc3c(c2)OCO3)no1)NCc1ccco1`, the RP-LC retention time came out at 906 s.
Take `CCCn1cc(S(=O)(=O)Nc2ccc(F)c(F)c2)c2cccnc21`: the RP-LC retention time was determined as 898 s.
On to `CCn1cc(C2=CCN(S(=O)(=O)c3cccc(Cl)c3)CC2)c2cccnc21`, for which the RP-LC retention time came to 1070 s.
Consider `COc1ccccc1-c1cc(C(F)(F)F)n2ncc(C(=O)OCCN3CCCC3=O)c2n1`, for which the RP-LC retention time is 894 s.
Molecule `CCNS(=O)(=O)c1cccnc1Nc1ccccc1F` came in with an RP-LC retention time of 948 s.
With `Cc1ccc(NC(=O)Nc2cnn(-c3ncc(N4CCCC4)cn3)c2)c(Cl)c1`, the RP-LC retention time came out at 844 s.
On to `CCOC(=O)c1c(C)n(Cc2ccco2)c2ccc(OCC)cc12`, for which the RP-LC retention time is 617 s.
Molecule `Cc1nc(N2CCN(c3ccccn3)CC2)c2c(C)c(C(=O)Nc3ccc(C)c(Cl)c3)sc2n1` gave an RP-LC retention time of 821 s.
`CC(C)c1ccc(-n2c3c(cc(C(=O)N4CCCCC4)c2=O)C(=O)CCC3)cc1` displayed an RP-LC retention time of 884 s.
For `CN(C)CC(=O)N1CC(c2nc(-c3ccc(F)cc3)no2)C2(CCOCC2)C1` (stereo not given), the RP-LC retention time was 572 s.
For `CN1CCn2cc(S(=O)(=O)Nc3cc(F)cc(F)c3)cc2C1=O`, the RP-LC retention time amounted to 727 s.
For `COC(=O)c1ccc(Cl)cc1NC(=O)NCCCn1c(C(F)(F)F)nc2cccnc21`, the RP-LC retention time was determined as 1020 s.
In turn, `COC(=O)c1c(NCc2ccc(C)o2)c2cccc(Cl)c2[nH]c1=O` came in with an RP-LC retention time of 766 s.
`CCOC(=O)N1CCC2(CC1)OC(=O)C(C)=C2C(=O)Nc1cc(OC)cc(OC)c1` showed an RP-LC retention time of 864 s.
Next, `CCOC(=O)C1=C(C)NC(=O)NC1c1ccc(OCC(=O)N2CCCCC2)cc1` (stereo not given): 682 s; `Cc1ccc(-c2nc(N3CCOCC3)ncc2C(=O)O)cc1`: 770 s; `Cc1csc(-c2cc(S(=O)(=O)NCC(C)C)cn2CC(=O)N2CCCCC2)n1`: 926 s.
The molecule `O=C1C(c2ccncc2)N(Cc2ccccc2)C(=O)CN1c1ccccc1` (stereo not given) yielded an RP-LC retention time of 684 s.
`Cc1ccc2nc(NC(=O)CSc3nnc(C4COc5ccccc5O4)o3)sc2c1` (stereo not given): the RP-LC retention time stood at 866 s.
Molecule `Cc1ccc(NC(=O)c2ccco2)c(C(=O)c2ccccc2)c1` showed an RP-LC retention time of 995 s.
In turn, `Cc1cc(C)n(-c2ccc(C(=O)NC3CCCC3)cn2)n1` gave an RP-LC retention time of 885 s.
For `CCc1nn(C)c(=O)c2cc(S(=O)(=O)NCc3ccccc3Cl)cn12`, the RP-LC retention time stood at 893 s.

Source of the values: the METLIN SMRT retention time set (Domingo-Almenara et al. 2019).
